# Patent publication US20250387356A1 (SpringWorks Therapeutics, Inc., priority 2024, published 2025)
# How the values were obtained:
# [1] = Mirdametinib pharmacokinetic parameters (Table A): exposure, absorption, food effect, distribution, elimination; format: in vivo; conditions: human, plasma, oral
# [2] = system: NF1-associated plexiform neurofibromas (PNs); assay: Phase 2b trial of mirdametinib in adult and pediatric patients: confirmed objective response by BICR volumetric MRI per REiNS criteria; format: in vivo, human
# Protocol: Study treatment was administered orally at a twice daily (BID) dose specified in the table below. Dosing was on a 28-day Cycle (4-week course) with a 3 week on/1 week off schedule. The treatment period will last for up to 24 Cycles followed by a 30-day Safety Follow-Up period.
# A partial response was defined as PN decrease ≥20% compared to baseline using centrally read MRI volumetric analysis.
# The major efficacy outcome measure was confirmed objective response rate (ORR), defined as the percentage of patients with complete response (disappearance of the target PN) or confirmed partial response ([…]). Responses were assessed by blinded independent central review (BICR) using volumetric magnetic resonance imaging (MRI) analysis per Response Evaluation in Neurofibromatosis and Schwannomatosis (REiNS) criteria. A secondary efficacy objective was to determine the duration of response for patients who achieved a confirmed objective response.
structure (smiles),measurement,setting,value
"O=C(NOC[C@H](O)CO)c1ccc(F)c(F)c1Nc1ccc(I)cc1F (single isomer, unassigned) [mirdametinib]",clearance,[1]; read-out: Apparent systemic clearance [Mean (% CV)] (converted),106 mL/min
same,Vd,[1]; read-out: Apparent volume of distribution [Mean (% CV)],255 L
same,half-life,[1]; read-out: Terminal elimination half-life [Mean (% CV)] (converted),28 h
same,"ORR, also considering patients who achieved a confirmed objective response after cycle 24",[2]; adults,45%
same,"ORR, also considering patients who achieved a confirmed objective response after cycle 24",[2]; pediatric patients,54%
